Measurements taken from BigSolDB 2.1.

O=C1NS(=O)(=O)c2ccccc21
solubility (mole fraction)
Conditions	278.15 K	283.15 K	288.15 K	293.15 K	298.15 K	303.15 K	308.15 K	313.15 K	318.15 K	323.15 K
in acetone	0.0222	0.025	0.0286	0.0326	0.0374	0.0422	0.0484	0.0554	0.0635	0.071
in ethanol	0.00486	0.00578	0.00686	0.00814	0.00964	0.0114	0.0134	0.0158	0.019	0.0231
in ethyl acetate	0.00883	0.0111	0.0139	0.0169	0.0203	0.0241	0.0287	0.0342	0.0401	0.0474
in isobutanol	0.00181	0.00222	0.00279	0.00355	0.00433	0.00538	0.00654	0.00791	0.00953	0.0114
in isopropanol	0.00382	0.0045	0.00532	0.00632	0.00752	0.00895	0.0106	0.0126	0.015	0.0181
in methanol	0.00542	0.00665	0.00806	0.00969	0.0115	0.0135	0.0157	0.0185	0.0217	0.0257
in n-propanol	0.00311	0.00369	0.00439	0.00526	0.00621	0.00756	0.00902	0.0109	0.0129	0.0157
